Reference: patent US20260007675A1, “TARGETING CHROMATIN REGULATORS INHIBITS LEUKEMOGENIC GENE EXPRESSION IN NPM1 MUTANT LEUKEMIA” (MEMORIAL SLOAN KETTERING CANCER CENTER, priority 2016, published 2026)

Columns and labels:
[1] = tested on: OCI-AML3 cells; assay: Cell viability / proliferation assay in OCI-AML3 cells; type: cell-based, human
Description: (§1) Proliferation assays were performed as previously described. Viable cell counts were determined by flow cytometry using Sytox Blue (Invitrogen) or DAPI viability stains.

[2] = tested on: HL-60 cells; assay: Cell viability / proliferation assay in HL-60 cells; type: cell-based, human
Description: as §1

[3] = tested on: HOX, MEIS1 and FLT3 expression in OCI-AML3 cells; assay: Gene expression (quantitative PCR / RNA sequencing) in OCI-AML3 cells; type: cell-based, human
[4] = tested on: Npm1CA/+RosaSB/+ and Npm1CA/+Flt3ITD/+ leukemia cells; assay: Colony forming and liquid culture proliferation assays in murine NPM1mut leukemia cells; type: cell-based; conditions: EPZ4777 10 μM
Description: For drug testing experiments, leukemic blasts were harvested from moribund primarily transplanted mice and cultured in vitro.
as §1
RNA and DNA purification, cDNA synthesis, quantitative real-time (qRT-) PCR, western blotting, flow cytometry, colony forming assays, viral transduction and shRNA based knock down experiments were performed using standard procedures. Primer sequences, western antibodies, and plasmids are also listed in the supplement.

[5] = tested on: Hoxa9-Meis1 transformed cells; assay: Colony forming assay in Hoxa9-Meis1 transformed cells; type: cell-based, murine; conditions: Hoxa9-Meis1 in vitro transformed cells, EPZ4777 10 μM
[6] = tested on: menin, H3K4me3 and H3K79me2 at HOX and MEIS1 loci in OCI-AML3 cells; assay: Chromatin immunoprecipitation-qPCR and immunoblotting of chromatin marks in OCI-AML3 cells; type: cell-based, human; conditions: OCI-AML3, EPZ4777 10 μM
[7] = tested on: Npm1CA/+RosaSB/+ leukemia cells; assay: Transplantation of ex vivo pretreated Npm1CA/+RosaSB/+ leukemia cells (leukemia initiating potential); type: in vivo, mice; conditions: for survival compared to vehicle control: pretreated Npm1CA/+RosaSB/+ cells, single compound
Description: As HOX gene expression is associated with self-renewal properties, the inventors next determined whether pharmacological DOT1L inhibition inhibits NPM1^mut leukemia initiation in mice. Murine Npm1^CA/+Rosa^SB/+ leukemia cells were treated ex vivo with EPZ4777 or drug vehicle for 10 days and equal numbers of viable cells were transplanted into sublethally irradiated recipient animals.
Npm1^CA/+Flt3^ITD/+ and Npm1^CA/+Rosa^SB/+ cells were harvested from moribund leukemic animals and transplanted into primary and secondary recipient mice as previously described. […] All transplantation experiments with ex vivo treated cells were performed as secondary transplantations.

[8] = target: DOT1L (Homo sapiens (Human), UniProt Q8TEK3); conditions: cited from earlier work
DOT1L, sequence (Q8TEK3 whole entry): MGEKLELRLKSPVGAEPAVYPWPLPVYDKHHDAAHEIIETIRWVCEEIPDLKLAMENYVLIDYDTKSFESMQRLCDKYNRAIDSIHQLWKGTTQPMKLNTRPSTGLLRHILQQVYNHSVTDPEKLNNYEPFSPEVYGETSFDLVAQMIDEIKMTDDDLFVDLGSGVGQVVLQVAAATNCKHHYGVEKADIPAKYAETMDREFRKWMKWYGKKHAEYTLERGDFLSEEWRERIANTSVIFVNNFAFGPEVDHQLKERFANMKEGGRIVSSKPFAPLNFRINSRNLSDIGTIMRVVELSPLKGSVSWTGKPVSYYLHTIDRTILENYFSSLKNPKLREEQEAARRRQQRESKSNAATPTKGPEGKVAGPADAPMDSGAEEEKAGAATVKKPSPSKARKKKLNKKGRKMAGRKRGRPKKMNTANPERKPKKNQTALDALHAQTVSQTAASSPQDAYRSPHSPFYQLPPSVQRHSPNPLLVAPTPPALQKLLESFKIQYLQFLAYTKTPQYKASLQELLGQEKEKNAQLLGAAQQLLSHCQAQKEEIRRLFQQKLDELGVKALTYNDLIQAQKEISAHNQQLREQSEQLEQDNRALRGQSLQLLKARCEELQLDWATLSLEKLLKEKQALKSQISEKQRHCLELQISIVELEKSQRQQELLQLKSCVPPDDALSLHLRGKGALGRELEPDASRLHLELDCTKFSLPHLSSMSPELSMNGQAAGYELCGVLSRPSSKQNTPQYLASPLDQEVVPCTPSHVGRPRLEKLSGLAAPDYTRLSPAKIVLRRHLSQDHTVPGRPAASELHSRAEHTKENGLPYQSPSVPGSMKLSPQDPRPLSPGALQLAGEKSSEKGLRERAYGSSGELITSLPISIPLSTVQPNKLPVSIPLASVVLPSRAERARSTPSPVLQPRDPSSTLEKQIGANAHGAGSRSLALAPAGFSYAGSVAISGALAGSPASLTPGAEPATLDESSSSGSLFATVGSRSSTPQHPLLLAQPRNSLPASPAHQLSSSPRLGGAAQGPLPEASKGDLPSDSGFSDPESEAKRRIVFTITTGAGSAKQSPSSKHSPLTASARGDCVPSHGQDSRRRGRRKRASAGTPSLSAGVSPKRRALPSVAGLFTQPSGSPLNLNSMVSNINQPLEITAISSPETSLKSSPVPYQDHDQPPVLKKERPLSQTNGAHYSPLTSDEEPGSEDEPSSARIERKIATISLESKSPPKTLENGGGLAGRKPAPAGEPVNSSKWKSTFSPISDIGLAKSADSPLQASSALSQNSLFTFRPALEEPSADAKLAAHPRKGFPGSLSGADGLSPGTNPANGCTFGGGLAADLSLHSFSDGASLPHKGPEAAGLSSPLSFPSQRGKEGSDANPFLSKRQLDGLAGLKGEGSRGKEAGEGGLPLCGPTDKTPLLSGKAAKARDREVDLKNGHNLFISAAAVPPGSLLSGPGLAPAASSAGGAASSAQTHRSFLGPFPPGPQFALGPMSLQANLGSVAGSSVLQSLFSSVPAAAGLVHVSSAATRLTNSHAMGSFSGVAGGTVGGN

[9] = tested on: OCI-AML3 cells; assay: Cell differentiation by CD11b flow cytometry in OCI-AML3 cells; type: cell-based, human; conditions: OCI-AML3, MI-2-2 12 μM, day seven of treatment
[10] = tested on: OCI-AML3 cells; assay: OCI-AML3 xenotransplantation model in NSG mice; type: in vivo; conditions: MI-503 50 mg/kg bid IP, versus vehicle
[11] = OCI-AML3, 4 days of MI-2-2 treatment (12 μM)

Structure (SMILES): CC(C)N(CCCNC(=O)Nc1ccc(C(C)(C)C)cc1)C[C@H]1O[C@@H](n2ccc3c(N)ncnc32)[C@H](O)[C@@H]1O [EPZ4777]
- cell proliferation ([1]; human NPM1mut leukemia cells (OCI-AML3), EPZ4777 10 μM): profound reduction
- cell proliferation ([2]; HL-60, EPZ4777 10 μM): unaffected
- FLT3 expression ([3]; EPZ4777 10 μM, 7 days, all NPM1mut models): dramatic suppression
- HOX gene expression ([3]; EPZ4777 10 μM, 7 days, human and murine models): significant repression
- cell proliferation and colony forming potential [4]: profound reduction
- colony forming potential [5]: unaffected
- H3K79me2 marks (immunoblotting and ChIP-PCR) [6]: global and HOXA and HOXB loci specific reduction
- WBC counts at time of disease onset within the control group ([7]; cells treated ex vivo with EPZ4777 for 10 days): significantly lower WBC counts
- survival of recipient animals ([7]; cells treated ex vivo with EPZ4777 for 10 days, versus vehicle): significant survival advantage
- survival compared to vehicle control [7]: significantly prolonged survival
- specificity for DOT1L as compared to other methyl transferases [8]: highly specific for DOT1L

Structure (SMILES): CC1(C)CN=C(N2CCN(c3ncnc4sc(CC(F)(F)F)cc34)CC2)S1 [MI-2-2]
- cell proliferation ([1]; OCI-AML3, dose response, 11 days of MI-2-2 treatment): profound dose-dependent reduction in cell proliferation
- cell growth inhibition ([2]; HL-60 (no NPM1mut or MLL-rearrangement), MI-2-2 dose response): only a mild cell growth inhibitory effect at higher doses
- FLT3 transcript levels [3, 11]: substantially and highly significantly suppressed
- HOXA, HOXB cluster and MEIS1 gene expression [3, 11]: significant down regulation
- CD11b expression [9]: 72%

Structure (SMILES): Cc1c(CN2CCC(Nc3ncnc4sc(CC(F)(F)F)cc34)CC2)ccc2c1cc(C#N)n2Cc1cn[nH]c1 [MI-503]
- potency compared with MI-2-2 (dose response curves) ([1]; human and murine NPM1mut leukemia cells): higher potency
- leukemia burden (percentage of bone marrow cells expressing human CD45) ([10]; 7 and 12 days): significantly reduced
- HOXB4, MEIS1 and FLT3 expression in sorted human CD45 positive cells [10]: dramatic decrease of expression levels
- survival compared to vehicle control [7]: significantly prolonged survival
